Values of other authors in the CATMoS acute toxicity set (Mansouri et al. 2021).
“And” between values parts separate entries of the source, which are not always exact repeats. Equal values may be shown once.

Assay: rat acute oral toxicity
Conditions: in vivo

Going from `FC(F)(F)c1nc2c(Cl)c(Cl)c(Cl)c(Br)c2[nH]1` to `CC(O)c1cc(N)cc(C(F)(F)F)c1` (stereo not drawn), the LD50 rises from 4.12 mg/kg to 880 mg/kg (210-fold).

First: CCOC(=O)c1nocc1C(=O)c1ccccc1
Second: CCN(CC)C(C)C(=O)c1ccccc1 (stereo not drawn)
The LD50 of the first is 2.5-fold higher: 1000 mg/kg for the first, 400 mg/kg for the second.

`CCP(c1ccccc1)c1ccccc1` and `CC(C)(C)C(=O)CCC1C(=O)N(c2ccccc2)N(c2ccccc2)C1=O` are within 1.5-fold of each other in LD50: 500 mg/kg for the first, 455 mg/kg for the second.

Going from `O=NN1CCc2ccccc21` to `NC1CCc2ccccc2C1` (stereo not drawn), the LD50 falls from 320 mg/kg to 100 mg/kg (3.2-fold).

Compared with `CC1CNC(C)CN1` (stereo not drawn), `CC(=O)OC1(C)CC(C)C(=O)C(C(O)CC2CC(=O)NC(=O)C2)C1` (stereo not drawn) is 20000-fold lower in LD50: 3160 mg/kg for the first, 0.158 mg/kg for the second.

Compared with `CN(Sc1ccc(F)cc1)C(=O)Oc1cccc2c1OC(C)(C)C2`, `Cc1ccc(N=CN(C)Sc2ccc(Cl)cc2)c(C)c1` is 13-fold higher in LD50: 25 mg/kg for the first, 320 mg/kg for the second.

First: NC1=NCC(CN2CCN(c3ccccc3)CC2)O1 (stereo not drawn)
Second: CN1CCN(C2=Nc3cc(Cl)ccc3Nc3ccccc32)CC1
The LD50 of the first is 2.3-fold higher: 575 mg/kg for the first, 251 mg/kg for the second.

`C=C(C)c1cccc(C(C)(C)N=C=O)c1` and `COc1ccc(C)cc1NC(C)=O` are within 1.5-fold of each other in LD50: 3100 mg/kg for the first, 2240 mg/kg for the second.

Going from `CCOC(=O)CCCCCCCCC(=O)OCC` to `NNC(=O)CCCCCCCCC(=O)NN`, the LD50 falls from 14500 mg/kg to 2500 mg/kg (5.8-fold).

Going from `C[N@+]12CCCC[C@@H]1CCC(=C(c1cccs1)c1cccs1)C2` to `CCOC(C1=NCCCN1)c1cccc2ccccc12` (stereo not drawn), the LD50 falls from 1180 mg/kg to 375 mg/kg (3.1-fold).

Going from `CC1(C)N=C(N)N=C(N)N1c1ccccc1` to `CCCC1=NN(c2ccccc2)C(=O)C1C=O` (stereo not drawn), the LD50 rises from 447 mg/kg to 765 mg/kg (1.7-fold).

Compared with `CCCCCC=CCC1CC(=O)OC1=O` (stereo not drawn), `CCCCC(CC)CN` (stereo not drawn) is 2.4-fold lower in LD50: 1100 mg/kg for the first, 450 mg/kg for the second.

Compared with `C=CCSC(C)C1(CC(C)C)C(=O)N=C(O)NC1=O` (stereo not drawn), `C=CCOC(=O)CC(SP(=S)(OC)OC)C(=O)OCC(C)SP(=S)(OC)OC` (stereo not drawn) is 1.8-fold higher in LD50: 417 mg/kg for the first, 762 mg/kg for the second.

Going from `COc1ccc2c(c1)-c1c(ccc(OC)c1O)CC(CCc1ccccc1)N(C)CC2` (stereo not drawn) to `COc1ccc2c(c1)OC(C)(C)C(c1ccccc1)=C2c1ccc(OCC(O)CNC(C)C)cc1` (stereo not drawn), the LD50 rises from 500 mg/kg to 1000 mg/kg (2-fold).

`CCCC1(CC(=O)O)OCCc2c1[nH]c1ccccc21` (stereo not drawn) and `CCCN(CCC)C(=O)SCc1ccccc1` are within 1.5-fold of each other in LD50: 1420 mg/kg for the first, 1820 mg/kg for the second.

Compared with `CCOC(=O)C(C(C)=O)P(=O)(OCC)OCC` (stereo not drawn), `CCOC(=O)C=C(C)C` is 66-fold higher in LD50: 176 mg/kg for the first, 11600 mg/kg for the second.

Compared with `O=C1CSC(=S)N1`, `Cc1cc(=O)c2c(C)ccc(C)c2o1` is 9.2-fold higher in LD50: 320 mg/kg for the first, 2960 mg/kg for the second.

Compared with `COC(=O)C1=C(C)NC(C)=C(C(=O)OC/C=C/c2ccccc2)C1c1cccc([N+](=O)[O-])c1` (stereo not drawn), `CC1(C)S[C@@H]2[C@H](NC(=O)C(C(=O)Oc3ccccc3)c3ccccc3)C(=O)N2[C@H]1C(=O)O` (stereo partly drawn) is 3.4-fold higher in LD50: 2970 mg/kg for the first, 10000 mg/kg for the second.

Compared with `CCC(=O)c1ccc(OCC(O)CO)c(OC)c1` (stereo not drawn), `OCC(O)Oc1ccc(Cl)cc1Cl` (stereo not drawn) is 1.5-fold lower in LD50: 1640 mg/kg for the first, 1070 mg/kg for the second.

First: CCOC(C1=NCC(C)(CC)CN1)c1ccc(Cl)cc1 (stereo not drawn)
Second: N#CCc1ccc(Cl)cc1
The LD50 of the first is 2.2-fold higher: 110 mg/kg for the first, 50 mg/kg for the second.

Compared with `N#CCc1ccccc1`, `CC1=NOC(=O)/C1=N\Nc1ccccc1Cl` is 2.1-fold lower in LD50: 270 mg/kg for the first, 126 mg/kg for the second.

First: C=C(C)C(=O)OCC
Second: CCC(C)OC(C)=O (stereo not drawn)
The LD50 of the first is 4.6-fold higher: 14800 mg/kg for the first, 3200 mg/kg for the second.

Compared with `COc1cc(Cc2cnc(N)nc2N)cc(OC)c1OC`, `CCOCCOC(=O)C(C)Oc1ccc(Oc2ncc(C(F)(F)F)cc2Cl)cc1` (stereo not drawn) is 2.6-fold higher in LD50: 200 mg/kg for the first, 518 mg/kg for the second.

Compared with `CCCOC/C(=N\c1ccc(Cl)cc1C(F)(F)F)n1ccnc1`, `COC(=O)[C@@](C)(N)Cc1ccc(O)c(C)c1` is 2-fold higher in LD50: 715 mg/kg for the first, 1400 mg/kg for the second.

First: CC(=O)OC1c2cccc(O)c2C(=O)c2c(O)cccc21
Second: CC(=O)Nc1ccc(-c2ccc(N)cc2)cc1
The LD50 of the first is 4.7-fold lower: 347 mg/kg for the first, 1630 mg/kg for the second.

`CCN(CC)N=Nc1cccnc1` and `CC(C)(C)/N=C(\NC#N)Nc1cccnc1` are within 1.5-fold of each other in LD50: 210 mg/kg for the first, 278 mg/kg for the second.

Going from `COc1cccc(N)c1` to `CCC1NC(=O)c2cc(N)ccc2O1` (stereo not drawn), the LD50 rises from 526 mg/kg to 1890 mg/kg (3.6-fold).

Compared with `NS(=O)(=O)CCNC(=O)N(CCCl)N=O`, `Nc1ccc2c(c1)C(=O)NC(CCCl)O2` (stereo not drawn) is 49-fold higher in LD50: 40 mg/kg for the first, 1960 mg/kg for the second.

Compared with `Cl[C@H]1[C@H](Cl)[C@@H](Cl)[C@H](Cl)[C@@H](Cl)[C@@H]1Cl` (racemic), `COc1ccc2c3c1O[C@H]1[C@@H](O)C=C[C@H]4[C@@H](C2)N(C)CC[C@@]341` is 71-fold lower in LD50: 6000 mg/kg for the first, 85 mg/kg for the second.

Compared with `FC(F)(F)C(F)(F)C(F)(F)C(F)(F)C(F)(F)C(F)(F)CCI`, `O=C(O)C(F)(F)C(F)(F)F` is 2.2-fold lower in LD50: 3870 mg/kg for the first, 1770 mg/kg for the second.

Compared with `CCCCCCCCOC(=O)Oc1ccc([N+](=O)[O-])cc1[N+](=O)[O-]`, `Cc1ncc([N+](=O)[O-])n1CCO` is 15-fold higher in LD50: 196 mg/kg for the first, 3000 mg/kg for the second.

Going from `O=P(O)(O)Oc1c(Br)cc(Br)cc1-c1cc(Br)cc(Br)c1O` to `Cc1ccc(N(CC2=NCCN2)c2cccc(O)c2)cc1`, the LD50 rises from 142 mg/kg to 1250 mg/kg (8.8-fold).

`O=S(=O)(O)c1cccc(Nc2nc(Nc3ccc(C=Cc4ccc(Nc5nc(Nc6cccc(S(=O)(=O)O)c6)nc(N(CCO)CCO)n5)cc4S(=O)(=O)O)c(S(=O)(=O)O)c3)nc(N(CCO)CCO)n2)c1` and `C#CC(C)N(C)C(=O)Nc1ccc(Cl)cc1` (stereo not drawn) are within 1.5-fold of each other in LD50: 1960 mg/kg for the first, 1790 mg/kg for the second.

`CCNCC` and `C[N+](C)(C)[O-]` are within 1.5-fold of each other in LD50: 9900 mg/kg for the first, 8700 mg/kg for the second.

Compared with `C1CCC(C(CC2CCCCN2)C2CCCCC2)CC1` (stereo not drawn), `O=C(O)[C@H]1/C(=C/CO)O[C@@H]2CC(=O)N21` is 3.7-fold higher in LD50: 2150 mg/kg for the first, 7940 mg/kg for the second.

For `Cc1nc(N)nc(N2N=CCC2C)n1` (stereo not drawn), the LD50 is listed as 3200 mg/kg.

In the case of `OCC1CCc2cc(C3CCCCC3)ccc21` (stereo not drawn), the LD50 is given as 295 mg/kg and 165 mg/kg.
For `O=NN(O)c1ccccc1`, the LD50 is given as 199 mg/kg and 490 mg/kg.
